Test results from publication PMC7000209, “Novel small molecule modulators of quorum sensing in avian pathogenic Escherichia coli (APEC)” (Virulence, 2018).

Experiments:
[1] = test system: AI-2 activity of APEC O78; assay: AI-2 bioluminescence indicator assay (V. harveyi BB170), APEC O78 supernatant; format: cell-based, avian pathogenic E. coli (APEC) O78; conditions: Escherichia coli, read-out: % Inhibtion of AI-2 activity
Protocol: (§1) Overnight culture of APEC O78 prepared in LB broth was adjusted to an optical density (OD600) of 0.05 (7 × 10^7 CFU/mL) in fresh LB broth. One hundred micro-liters of the culture was transferred to a 96-well plate and 1µL (100 μM final concentration) of the compound was added to each well using a pin tool. Chloramphenicol (40 μg/mL) or kanamycin (30 μg/mL) and 1μL of 100% DMSO were included as controls in each plate. Plates were incubated at 37 °C for 10 h with shaking in a Sunrise^TM Tecan plate reader (Tecan Group Ltd. San Jose, CA, USA) and the growth was kinetically monitored every 30 min by measuring the OD at 600 nm.
(§2) The AI-2 bioluminescence assay was performed as described previously. Briefly, APEC O78 cultures grown in the presence of SMs (see above) were centrifuged at 5000 × g for 10 min, and cell-free culture supernatants were prepared by using a 0.22 µm filter 96 well plate (Millipore). The bioluminescence reporter V. harveyi BB170 (AI-1^+ and AI-2^-) was grown overnight in AB medium at 30 °C aerobically with shaking. The overnight culture was diluted to 1:5000 in fresh AB medium and incubated at 30 °C for 3 h. Following incubation, 180 μL of the V. harveyi BB170 culture was distributed into each well of a 96-well plate and mixed with 20 µL of the cell free culture supernatant, the plate was then incubated at 30 °C for 2.5 h in the dark and the bioluminescence was measured using in vivo imaging system (IVIS Lumina Series III, PerkinElmer, USA). […] Cell-free culture supernatants collected from overnight cultures of V. harveyi BB120 (AI-1^+andAI-2^+) and E. coli DH5α (a strain lacks AI-2) were used as controls. Bioluminescence of SMs treated culture supernatants were compared to DMSO treated control. The Z-score was calculated to evaluate the quality of the bioluminescence screening. Four independent experiments were conducted for the 69 compounds that inhibited ≥ 75% of the AI-2 mediated bioluminescence and the average inhibition percentage was calculated.

AI-2 activity of APEC O1 = assay: AI-2 bioluminescence indicator assay, APEC O1; format: cell-based, avian pathogenic E. coli (APEC) O1; conditions: Escherichia coli, read-out: % Inhibtion of AI-2 activity, serotype O1, bioluminescence vs DMSO treated control
Protocol: as §1, §2
(§3) The selected compounds were also tested for inhibition of AI-2 production in other APEC serotypes such as O1, O2, O8, O15, O18, O35, O109, and O115 that are commonly implicated in colibacillosis using the same procedure described above.

AI-2 activity of O8 = assay: AI-2 bioluminescence indicator assay, APEC O8; format: cell-based, avian pathogenic E. coli (APEC) O8; conditions: Escherichia coli, read-out: % Inhibtion of AI-2 activity, serotype O8, bioluminescence vs DMSO treated control
Protocol: as §1, §2, §3

AI-2 activity of O15 = assay: AI-2 bioluminescence indicator assay, APEC O15; format: cell-based, avian pathogenic E. coli (APEC) O15; conditions: Escherichia coli, read-out: % Inhibtion of AI-2 activity, serotype O15, bioluminescence vs DMSO treated control
Protocol: as §1, §2, §3

AI-2 activity of O18 = assay: AI-2 bioluminescence indicator assay, APEC O18; format: cell-based, avian pathogenic E. coli (APEC) O18; conditions: Escherichia coli, read-out: % Inhibtion of AI-2 activity, serotype O18, bioluminescence vs DMSO treated control
Protocol: as §1, §2, §3

Caco-2 cells = assay: Lactate dehydrogenase (LDH) cytotoxicity assay, Caco-2; format: cell-based, human; conditions: 100 µM, 24 h
Protocol: The selected 10 AI-2 inhibitors were evaluated for their toxicity to Caco-2 (ATCC® HTB-37™) using LDH assay. Briefly, Caco-2 cells (1.4 × 10^5 cells/well) were grown in a 96-well plate in minimal essential medium (MEM) supplemented with 20% fetal bovine serum (FBS; Gibco), 1% non-essential amino acid (NEAA, Invitrogen Life Technologies) and 1mM sodium pyruvate, at 37 °C in a humidified 5% CO2 incubator for 48 h until a complete monolayer was formed. For LDH assay, cells were washed twice with media containing no FBS/no antibiotics and incubated with 150 µL of fresh media containing 100 μM of each compound at 37 °C for 24 h in a humidified 5% CO2 incubator. Fifty microliters of supernatant was analyzed using LDH Cytotoxicity Assay Kit (Thermo Scientific).

[2] = test system: G. mellonella larvae infected with APEC O78; assay: Wax moth (G. mellonella) larva infection model; format: in vivo, Galleria mellonella; conditions: for increase in larval survival: 12.5 µg/larva (50 mg/kg), APEC O78 4.25 × 10^4 CFU, 72 h, vs DMSO treated controls; for clearance of APEC in surviving larvae / reduction of bacterial load in surviving larvae: live larvae at 72 h; for reduction of bacterial load in surviving larvae: in comparison to dead larvae
Protocol: G. mellonella caterpillars (larvae) in the final instar stage (fifth instar) were obtained from Vanderhorst, Inc. (St. Mary’s, Ohio, USA), stored in wood shavings in a petri dish in the dark and used within 7 days of receiving. Larvae with 15–25 mm length, 250–350 mg weight, having a creamy color with minimal speckling and no grey markings were used in this study. The infection was performed as described previously. For the inoculation, AI-2 inhibitors were diluted in a buffer mix (30% DMSO plus 10 mM MgSO4) as described previously and each larva (n = 10) was inoculated with 8.5 µL (50 mg/kg; 12.5 µg/larva) of the AI-2 inhibitors into the hemocoel via the last left proleg using PB600-1 repeating dispenser (Hamilton) attached to insulin syringe (31 gauge, 8 mm needle length; ReliOn). Larvae were placed inside sterile petri dishes and incubated for 2 h in the dark at 37 °C. Then, larvae were infected with 8.5 µL of (4.25 × 10^4 CFU) of Rif^R APEC O78 in 10 mM MgSO4 on the right hind proleg. Rif^R APEC O78 was generated as described above by plating APEC on LB agar plate containing 50 µg/ mL rifampicin for specific monitoring of APEC population inside the larvae. […] Infection dose of Rif^R APEC O78 to larvae was identified based on preliminary study (Figure S1). Larvae were incubated at 37°C in the dark and the survival was monitored daily for 72 h. Infected larvae treated with buffer mix and 75 mg/kg of chloramphenicol were used as controls.
For the quantification of APEC inside the larvae, dead and live larvae were surface sterilized with 70% ethanol, homogenized in PBS. The suspension was tenfold serially diluted and plated on MacConkey agar plates supplemented with 50 µg/mL of rifampicin. The plates were then incubated overnight at 37 °C and APEC load was enumerated. Two independent experiments were conducted using larvae (n = 10) obtained in different batches.

| Compound | inhibition at 100 µM [1] [%] | inhibition at 100 µM (AI-2 activity of APEC O1) [%] | inhibition at 100 µM (AI-2 activity of O8) [%] | inhibition at 100 µM (AI-2 activity of O15) [%] | inhibition at 100 µM (AI-2 activity of O18) [%] | cytotoxicity (LDH release) (Caco-2 cells) [%] | larval death at 48 h post treatment (in words) [2] | increase in larval survival [2] [%] | clearance of APEC in surviving larvae [2] [%] | reduction of bacterial load in surviving larvae [2] | larval death at 72 h post treatment (in words) [2] |
| --- | --- | --- | --- | --- | --- | --- | --- | --- | --- | --- | --- |
| Fc1ccc(CN2CCCN(Cc3nc(-c4ccc(C(F)(F)F)cc4)no3)CC2)cc1 [C9, 1-(4-fluorobenzyl)-4-({3-[4-(trifluoromethyl)phenyl]-1,2,4-oxadiazol-5-yl}methyl)-1,4-diazepane] | 79 | 19 | 20 | 0 | 14 | – | – | – | – | – | – |
| CS/C(N)=N/N=C/c1cc(C)ccc1O [C4, methyl N'-(2-hydroxy-5-methylbenzylidene)h ydrazonothiocarbamate] | 75 | 63 | 0 | 46 | 54 | 12 | – | – | – | – | – |
| OCCC1CN(C2CCN(c3ccccc3)CC2)CCN1CCCc1ccccc1 (centres unmarked) [C10, 2-[4-(1-phenyl-4-piperidinyl)-1-(3-phenylpropyl)-2-piperazinyl]ethanol] | 84 | 64 | 0 | 22 | 35 | 27 | – | – | – | – | – |
| O=[N+]([O-])c1cccc(S(=O)(=O)Nc2ccc(Br)cc2)c1 [C6, N-(4-bromophenyl)-3-nit robenzenesulfonamide] | 92 | ≥ 75 | ≥ 75 | – | ≥ 75 | 27 | no larval death | – | – | – | – |
| Cc1ccc(CN2CCN(CCCc3ccccc3)CC2)cc1 [C5, 1-(4-methylbenzyl)-4-(3-phenylpropyl)piperazine] | 83 | 46 | 18 | 45 | 61 | – | no larval death | – | – | – | – |
| Cc1ccccc1N1CCN(C2CCCN(C(=O)c3ccc(F)c(Cl)c3)C2)CC1 (centres unmarked) [C2, 1-[1-(3-chloro-4-fluorobenzoyl)-3-piperidinyl]-4-(2-methylphenyl)piperazine] | 92 | 64 | 20 | 27 | 43 | – | no larval death | 30 | 100 | up to 5 logs | – |
| NC(=O)c1ccccc1Nc1cccc(C(F)(F)F)c1 [C3, 2-{[3-(trifluoromethyl)phenyl]amino}benzamide] | 78 | 65 | 39 | 0 | 8 | – | – | – | – | – | – |
| COCCN1CCC(CN(Cc2ccncc2)Cc2ccccc2Cl)CC1 [C1, (2-chlorobenzyl){[1-(2-methoxyethyl)-4-piperidinyl]methyl}(4-pyridinylmethyl)amine] | 84 | ≥ 75 | 20 | 13 | 37 | – | – | 23 | – | – | no larval death |
| CCc1ccccc1Nc1nc(-c2c(C)nc3ccccn23)cs1 [C8, N-(2-ethylphenyl)-4-(2-methylimidazo[1,2-a]pyridin-3-yl)-1,3-thiazol-2-amine] | 98 | 41 | 18 | 25 | 54 | 2 | no larval death | – | 100 | up to 5 logs | – |
| O=C(CCN1CCN(c2ccccc2F)CC1)Nc1ccc(Br)cc1 [C7, N-(4-bromophenyl)-3-[4-(2-fluorophenyl)-1-piperazinyl]propanamide] | 94 | 47 | 2 | 36 | 48 | – | – | – | – | – | no larval death |
